The NIST ThermoML archive (doi:10.1021/je501041r)
Numbers after ± are expanded uncertainties.

Assay: xn = mol fraction of the nth substance listed
Settings: 101 kPa, Liquid; for viscosity: Capillary tube (Ostwald / Ubbelohde) method; for mass density: Vibrating tube method

CC(C)CC(C)(C)C [2,2,4-trimethylpentane] + CCCO
Settings	mass density, 313.15 K [kg/m3]	mass density, 318.15 K [kg/m3]	mass density, 323.15 K [kg/m3]	viscosity, 313.15 K [mPa·s]	viscosity, 318.15 K [mPa·s]	viscosity, 323.15 K [mPa·s]
x1 = 0.02	783.12 ± 2	778.94 ± 2	774.7 ± 2	–	–	–
x1 = 0.04	778.51 ± 2	774.31 ± 2	770.05 ± 2	–	–	–
x1 = 0.06	773.86 ± 2	769.64 ± 2	765.36 ± 2	–	–	–
x1 = 0.1	765.38 ± 2	761.14 ± 2	756.84 ± 2	1.1 ± 0.013	0.994 ± 0.012	0.903 ± 0.011
x1 = 0.2	747.08 ± 2	742.76 ± 2	738.39 ± 2	0.92 ± 0.011	0.833 ± 0.01	0.767 ± 0.009
x1 = 0.3	732.1 ± 2	727.73 ± 2	723.3 ± 2	0.758 ± 0.009	0.693 ± 0.008	0.648 ± 0.008
x1 = 0.4	719.54 ± 2	715.13 ± 2	710.67 ± 2	0.648 ± 0.008	0.596 ± 0.007	0.554 ± 0.007
x1 = 0.4999	708.99 ± 2	704.58 ± 2	700.11 ± 2	0.569 ± 0.007	0.529 ± 0.006	0.491 ± 0.006
x1 = 0.5996	699.91 ± 2	695.48 ± 2	691 ± 2	0.51 ± 0.006	0.479 ± 0.006	0.445 ± 0.005
x1 = 0.6998	691.95 ± 2	687.53 ± 2	683.07 ± 2	0.467 ± 0.006	0.439 ± 0.005	0.413 ± 0.005
x1 = 0.7995	685.26 ± 2	680.87 ± 2	676.44 ± 2	0.434 ± 0.005	0.41 ± 0.005	0.388 ± 0.005
x1 = 0.9	679.55 ± 2	675.2 ± 2	670.81 ± 2	0.414 ± 0.005	0.393 ± 0.005	0.373 ± 0.005
x1 = 1	675.32 ± 2	671.1 ± 2	666.85 ± 2	0.408 ± 0.005	0.388 ± 0.005	0.369 ± 0.005
